Among the data in patent US20100317685A1, “N-PHENYL-IMIDAZO[1,2-a]PYRIDINE-2-CARBOXAMIDE DERIVATIVES, THEIR PREPARATION AND THEIR THERAPEUTIC APPLICATION” (SANOFI-AVENTIS, priority 2008, published 2010) are EC50 values, retold here.

The target of this assay is T1, mouse Nurr1 receptor (Mus musculus, UniProt Q06219).
T1 construct: a cell line (N2A) endogenously expressing the mouse Nurr1 receptor; host or cells: Neuro-2A (N2A) mouse neuroblastoma cells stably transfected with 8NBRE-luciferase
The assay can be described thus: In vitro activity on N2A cells (NBRE-luciferase reporter). Particulars: N2A-8NBRE cells, 24 hours incubation. In kind it is cell-based. How it is done:
Evaluation of the In Vitro Activity on N2A Cells
The activity of the compounds according to the invention was evaluated on a cell line (N2A) endogenously expressing the mouse Nurr1 receptor and stably transfected with the NOT binding response element (NBRE) coupled to the luciferase reporter gene. The EC50 values are between 0.01 and 1000 nM. The assays were carried out according to the procedure described below.
The Neuro-2A cell line comes from a standard commercial source (ATCC). The Neuro-2A clone was obtained, from a spontaneous tumour originating from an A albino mouse strain, by R. J Klebe et al. This Neuro-2A line is subsequently stably transfected with 8NBRE-luciferase. The N2A-8NBRE cells are cultured until confluence in 75 cm^2 culture flasks containing DMEM supplemented with 10% of foetal calf serum, 4.5 g/l of glucose and 0.4 mg/ml of geneticin. After a week of culture, the cells are recovered with 0.25% trypsin for 30 seconds and then resuspended in DMEM without phenol red, containing 4.5 g/l of glucose and 10% of Hyclone delipidized serum, and deposited into transparent-bottom 96-well white plates. The cells are deposited at a rate of 60 000 per well in 75 μl for 24 hours before the addition of the products. […] The plates are subsequently measured in a luminescence counter for microplates after having been sealed with an adhesive film. […]

Molecules are shown by their SMILES.

T1 sequence (Q06219 whole entry): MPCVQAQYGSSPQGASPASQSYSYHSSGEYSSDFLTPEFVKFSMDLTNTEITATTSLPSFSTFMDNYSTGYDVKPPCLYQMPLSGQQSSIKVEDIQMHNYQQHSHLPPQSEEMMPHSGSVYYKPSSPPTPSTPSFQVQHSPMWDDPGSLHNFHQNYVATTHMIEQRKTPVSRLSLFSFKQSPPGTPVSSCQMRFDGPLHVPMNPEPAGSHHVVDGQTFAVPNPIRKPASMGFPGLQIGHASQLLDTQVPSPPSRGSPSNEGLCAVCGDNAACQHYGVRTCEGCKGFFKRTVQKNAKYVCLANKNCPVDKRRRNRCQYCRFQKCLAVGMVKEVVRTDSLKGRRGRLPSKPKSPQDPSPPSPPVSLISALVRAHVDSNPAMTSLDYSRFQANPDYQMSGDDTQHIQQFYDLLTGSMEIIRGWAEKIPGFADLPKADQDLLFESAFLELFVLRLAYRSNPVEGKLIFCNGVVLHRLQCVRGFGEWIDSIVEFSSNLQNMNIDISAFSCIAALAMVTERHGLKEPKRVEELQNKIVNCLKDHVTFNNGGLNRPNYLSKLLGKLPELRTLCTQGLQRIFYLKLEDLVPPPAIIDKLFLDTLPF

As usually defined, the EC50 is the concentration needed to bring the measured effect to its halfway point. The compound `N#Cc1cccc(NC(=O)c2cn3cc(-c4cccc(CO)c4)ccc3n2)c1` [Compound 5, N-(3-cyanophenyl)-6-[3-(hydroxymethyl)phenyl]imidazo[1,2-a]pyridine-2-carboxamide] came in with an EC50 of 0.027 µM. This lies in the double-digit nanomolar range.
With `N#Cc1c(F)cccc1NC(=O)c1cn2cc(-c3cccc(CO)c3)ccc2n1` [Compound 8, N-(2-cyano-3-fluorophenyl)-6-[3-(hydroxymethyl)phenyl]imidazo[1,2-a]pyridine-2-carboxamide] the figure was 0.0004 µM.
